ChEMBL document CHEMBL3639015, “Bicyclic compound or salt thereof” (2014)

Target: Heat shock protein HSP 90-alpha (Homo sapiens, UniProt P07900)
Experiment: AlphaScreen Competitive Assay: HSP90-binding activity was determined by an AlphaScreen competitive assay system. The purified HSP90 solution was diluted with a binding buffer (50 mM Tris-HCl (pH 7.5), 150 mM NaCl, 0.1% Triton-X 100, 1 mM DTT, 0.1% BSA) and added to a 384-well plate (#3673, Corning Inc.) containing test substances. After reaction at room temperature for 2 hours, biotinylated geldanamycin was added thereto at a concentration of 40 nM/well and further reacted for 1 hour. Detection mix (20 mM HEPES-KOH (pH 7.5), 0.5% BSA, 0.04 mg/mL Nickel Chelate Acceptor beads, 0.04 mg/mL Streptavidin-coated Donor beads) (#6760619C, PerkinElmer, Inc.) was added to each well in an amount equal to the amount of the reaction solution and reacted at room temperature for 1 hour in the dark. Then, fluorescence intensity was measured using Multilabel Plate Reader EnVision (PerkinElmer, Inc.).

Row | IC50 [nM] | Structure (SMILES)
1 | 190 | CCNc1cc(-c2nccc3c(-n4cnc(-c5cnn(C)c5)c4)cccc23)ccc1C(N)=O
2 | 60 | NC(=O)c1ccc(-c2nccc3c(-c4cncc(N)c4)cccc23)cc1NC1CCC(O)CC1 (stereo not drawn)
3 | 450 | NCC(=O)OC1CCC(Nc2cc(-c3nccc4c(-c5cnc6ccccc6c5)cccc34)ccc2C(N)=O)CC1 (stereo not drawn)
4 | 280 | CC(C)Cn1cc(-c2cn(-c3cccc4c(-c5ccc(C(N)=O)c(NC6CCC(O)CC6)c5)nccc34)cn2)cn1 (stereo not drawn)
5 | 270 | Cn1cc(-c2cn(-c3cccc4c(-c5ccc(C(N)=O)c(NC6CCCCCC6)c5)nccc34)cn2)cn1
6 | 220 | Cn1cc(-c2cn(-c3cccc4c(-c5ccc(C(N)=O)c(NCC6CC6)c5)cc(C(F)(F)F)nc34)cn2)cn1
7 | 230 | CCNc1cc(-c2cc(C(F)(F)F)nc3c(-n4cnc(-c5cnn(C(F)F)c5)c4)cccc23)ccc1C(N)=O
8 | 3390 | CC(C)(C)Nc1cc(-c2cc(C(F)(F)F)nc3c(-n4cnc(-c5ccccc5)c4)cccc23)ccc1C(N)=O
